In PubChem BioAssay (NCI):
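Five concentrations, 48 hours, 96-well plates. At the GI50, growth is halved. At the TGI there is no net growth.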

Assays:
Experiment in all cases: growth of human tumour cells (NCI), 48 h
SR leukemia = tested on: SR leukemia
MDA-MB-435 = tested on: MDA-MB-435
EKVX NSCLC = tested on: EKVX NSCLC
KM12 colon = tested on: KM12 colon
HCT-116 colon = tested on: HCT-116 colon
ACHN renal = tested on: ACHN renal
SW-620 colon = tested on: SW-620 colon
SN12C renal = tested on: SN12C renal
U251 CNS = tested on: U251 CNS
HCT-15 colon = tested on: HCT-15 colon
RXF 393 renal = tested on: RXF 393 renal
UO-31 renal = tested on: UO-31 renal
CCRF-CEM leukemia = tested on: CCRF-CEM leukemia
OVCAR-8 ovarian = tested on: OVCAR-8 ovarian
SF-268 CNS = tested on: SF-268 CNS
A549 NSCLC = tested on: A549 NSCLC
COLO 205 colon = tested on: COLO 205 colon
HS 578T breast = tested on: HS 578T breast
TK-10 renal = tested on: TK-10 renal
OVCAR-5 ovarian = tested on: OVCAR-5 ovarian
UACC-62 melanoma = tested on: UACC-62 melanoma
SK-MEL-28 melanoma = tested on: SK-MEL-28 melanoma
SF-295 CNS = tested on: SF-295 CNS
UACC-257 melanoma = tested on: UACC-257 melanoma
SK-MEL-5 melanoma = tested on: SK-MEL-5 melanoma
NCI-H226 lung = tested on: NCI-H226 lung
SK-MEL-2 melanoma = tested on: SK-MEL-2 melanoma
NCI/ADR-RES ovarian = tested on: NCI/ADR-RES ovarian
HL-60(TB) leukemia = tested on: HL-60(TB) leukemia
A498 renal = tested on: A498 renal
T-47D breast = tested on: T-47D breast
NCI-H522 lung = tested on: NCI-H522 lung
M14 melanoma = tested on: M14 melanoma
SNB-19 CNS = tested on: SNB-19 CNS
NCI-H460 lung = tested on: NCI-H460 lung
HOP-62 NSCLC = tested on: HOP-62 NSCLC
BT-549 breast = tested on: BT-549 breast
HCC-2998 colon = tested on: HCC-2998 colon
MDA-MB-231 breast = tested on: MDA-MB-231 breast
786-0 renal = tested on: 786-0 renal
HT29 colon = tested on: HT29 colon
RPMI-8226 leukemia = tested on: RPMI-8226 leukemia
OVCAR-4 ovarian = tested on: OVCAR-4 ovarian
HOP-92 NSCLC = tested on: HOP-92 NSCLC
CAKI-1 renal = tested on: CAKI-1 renal
PC-3 prostate = tested on: PC-3 prostate
SK-OV-3 ovarian = tested on: SK-OV-3 ovarian
MOLT-4 leukemia = tested on: MOLT-4 leukemia
SF-539 CNS = tested on: SF-539 CNS
K-562 leukemia = tested on: K-562 leukemia
NCI-H23 lung = tested on: NCI-H23 lung
DU-145 prostate = tested on: DU-145 prostate
IGROV1 ovarian = tested on: IGROV1 ovarian
LOX IMVI melanoma = tested on: LOX IMVI melanoma
MCF7 breast = tested on: MCF7 breast

## COc1ccc(C(=O)c2c(N)c(C#N)cn2-c2cccc(OC)c2)cc1
SR leukemia
  GI50: 0.775 µM
  TGI: 14.4 µM
MDA-MB-435
  GI50: 0.788 µM
  TGI: 4.49 µM
EKVX NSCLC
  GI50: 4.68 µM
  TGI: > 100 µM
KM12 colon
  GI50: 4.17 µM
  TGI: > 100 µM
HCT-116 colon
  GI50: 3.5 µM
  TGI: > 100 µM
ACHN renal
  GI50: 6.52 µM
  TGI: > 100 µM
SW-620 colon
  GI50: 2.85 µM
  TGI: > 100 µM
SN12C renal
  GI50: 5.64 µM
  TGI: > 100 µM
U251 CNS
  GI50: 3.45 µM
  TGI: > 100 µM
HCT-15 colon
  GI50: 2.49 µM
  TGI: > 100 µM
RXF 393 renal
  GI50: 2.05 µM
  TGI: 6.1 µM
UO-31 renal
  GI50: 5.42 µM
  TGI: > 100 µM
CCRF-CEM leukemia
  GI50: 2.68 µM
  TGI: 9.83 µM
OVCAR-8 ovarian
  GI50: 5.3 µM
  TGI: > 100 µM
SF-268 CNS
  GI50: 5.65 µM
  TGI: > 100 µM
A549 NSCLC
  GI50: 5.84 µM
  TGI: > 100 µM
COLO 205 colon
  GI50: 3.01 µM
  TGI: 23 µM
HS 578T breast
  GI50: 2.42 µM
  TGI: 8.66 µM
TK-10 renal
  GI50: 6.14 µM
  TGI: > 100 µM
OVCAR-5 ovarian
  GI50: 7.36 µM
  TGI: > 100 µM
UACC-62 melanoma
  GI50: 3.22 µM
  TGI: > 100 µM
SK-MEL-28 melanoma
  GI50: 49.8 µM
  TGI: > 100 µM
SF-295 CNS
  GI50: 2.9 µM
  TGI: > 100 µM
UACC-257 melanoma
  GI50: 9.48 µM
  TGI: > 100 µM
SK-MEL-5 melanoma
  GI50: 3.19 µM
  TGI: 23.2 µM
NCI-H226 lung
  GI50: 4.5 µM
  TGI: > 100 µM
SK-MEL-2 melanoma
  GI50: 4.58 µM
  TGI: > 100 µM
NCI/ADR-RES ovarian
  GI50: 2.35 µM
  TGI: > 100 µM
HL-60(TB) leukemia
  GI50: 2.01 µM
  TGI: 4.91 µM
A498 renal
  GI50: 2.73 µM
  TGI: 7.8 µM
T-47D breast
  GI50: 3.72 µM
  TGI: > 100 µM
NCI-H522 lung
  GI50: 1.99 µM
  TGI: 7.51 µM
M14 melanoma
  GI50: 2.51 µM
  TGI: > 100 µM
SNB-19 CNS
  GI50: 3.92 µM
  TGI: > 100 µM
NCI-H460 lung
  GI50: 3.41 µM
  TGI: > 100 µM
HOP-62 NSCLC
  GI50: 4.12 µM
  TGI: > 100 µM
BT-549 breast
  GI50: 4.41 µM
  TGI: > 100 µM
HCC-2998 colon
  GI50: 4.98 µM
  TGI: 97.4 µM
MDA-MB-231 breast
  GI50: 7.8 µM
  TGI: > 100 µM
786-0 renal
  GI50: 4.64 µM
  TGI: > 100 µM
HT29 colon
  GI50: 2.64 µM
  TGI: 20.2 µM
RPMI-8226 leukemia
  GI50: 2.94 µM
  TGI: 15.7 µM
OVCAR-4 ovarian
  GI50: 18 µM
  TGI: > 100 µM
HOP-92 NSCLC
  GI50: 9.53 µM
  TGI: > 100 µM
CAKI-1 renal
  GI50: 3.2 µM
  TGI: > 100 µM
PC-3 prostate
  GI50: 3.75 µM
  TGI: > 100 µM
SK-OV-3 ovarian
  GI50: 4.09 µM
  TGI: > 100 µM
MOLT-4 leukemia
  GI50: 3.65 µM
  TGI: 17.9 µM
SF-539 CNS
  GI50: 2.41 µM
  TGI: 8.52 µM
K-562 leukemia
  GI50: 0.707 µM
  TGI: 8.57 µM
NCI-H23 lung
  GI50: 5.61 µM
  TGI: > 100 µM
DU-145 prostate
  GI50: 4.7 µM
  TGI: > 100 µM
IGROV1 ovarian
  GI50: 5 µM
  TGI: > 100 µM
LOX IMVI melanoma
  GI50: 4.6 µM
  TGI: > 100 µM
MCF7 breast
  GI50: 3.07 µM
  TGI: > 100 µM
